Patent publication US20190374533A1, “COMPOUNDS AND METHODS FOR INHIBITING NHE-MEDIATED ANTIPORT IN THE TREATMENT OF DISORDERS ASSOCIATED WITH FLUID RETENTION OR SALT OVERLOAD AND GASTROINTESTINAL TRACT DISORDERS” (Ardelyx, Inc., priority 2008, published 2019)
Where a name gives a salt, the structure may show the parent alone. Read-outs that look alike come from different tables or passages of the source.

What was measured:
human NHE3 = molecular target: T1, human NHE3 (Homo sapiens, UniProt P48764); experiment: Cell-based assay of NHE-3 activity (pre-incubation inhibition), human; settings: human Preincubation assay; for IC50: PS120 fibroblasts expressing human NHE3 and NHERF2, 0-30 μM test compound
T1 construct: host or cells: PS120 fibroblasts
T1 sequence (P48764 26-834): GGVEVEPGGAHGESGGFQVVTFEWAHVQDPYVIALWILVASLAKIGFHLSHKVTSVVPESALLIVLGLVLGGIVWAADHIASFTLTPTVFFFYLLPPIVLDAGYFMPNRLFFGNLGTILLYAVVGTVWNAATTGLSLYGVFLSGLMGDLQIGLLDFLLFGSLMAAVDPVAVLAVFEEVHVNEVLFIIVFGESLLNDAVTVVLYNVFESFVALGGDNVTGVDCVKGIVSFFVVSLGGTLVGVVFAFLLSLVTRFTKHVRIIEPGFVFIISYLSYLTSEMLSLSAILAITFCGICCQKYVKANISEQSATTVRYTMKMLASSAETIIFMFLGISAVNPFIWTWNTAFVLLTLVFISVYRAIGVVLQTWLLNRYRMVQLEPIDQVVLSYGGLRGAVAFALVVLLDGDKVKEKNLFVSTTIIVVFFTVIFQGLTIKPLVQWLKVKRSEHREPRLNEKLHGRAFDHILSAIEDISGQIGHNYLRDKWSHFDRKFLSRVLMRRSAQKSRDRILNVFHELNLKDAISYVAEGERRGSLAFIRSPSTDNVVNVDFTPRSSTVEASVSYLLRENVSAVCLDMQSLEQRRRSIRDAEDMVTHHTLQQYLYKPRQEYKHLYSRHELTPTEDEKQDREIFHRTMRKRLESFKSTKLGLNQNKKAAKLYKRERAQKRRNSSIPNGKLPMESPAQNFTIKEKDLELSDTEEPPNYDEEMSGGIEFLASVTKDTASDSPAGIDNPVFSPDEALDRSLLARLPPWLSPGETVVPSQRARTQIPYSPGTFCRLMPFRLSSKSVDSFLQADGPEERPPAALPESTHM
T1 sequence (Q99653 2-195 partner limits assumed): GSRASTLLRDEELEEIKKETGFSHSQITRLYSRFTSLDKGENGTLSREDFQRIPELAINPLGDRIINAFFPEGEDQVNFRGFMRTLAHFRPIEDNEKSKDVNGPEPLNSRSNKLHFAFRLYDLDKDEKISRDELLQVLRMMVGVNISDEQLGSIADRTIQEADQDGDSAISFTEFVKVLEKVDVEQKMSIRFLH
Description: Rat and human NHE-3-mediated Na^+-dependent H^+ antiport was measured using a modification of the pH sensitive dye method originally reported by Paradiso (Proc. Natl. Acad. Sci. USA. (1984) 81(23): 7436-7440). PS120 fibroblasts stably expressing human NHE3 and NHERF2 were obtained from Mark Donowitz (Baltimore, Md.). Opossum kidney (OK) cells were obtained from the ATCC and propagated per their instructions. The rat NHE-3 gene (GenBank M85300) was introduced into OK cells via electroporation, and cells were seeded into 96 well plates and grown overnight. Medium was aspirated from the wells then incubated for 30 min at 37° C. with NH4Cl-HEPES buffer (20 mM NH4Cl, 80 mM NaCl, 50 mM HEPES, 5 mM KCl, 2 mM CaCl2, 1 mM MgCl2, pH 7.4) containing 5 μM BCECF-AM. Cells were washed once with Ammonium free, Na^+-free HEPES (100 mM choline, 50 mM HEPES, 10 mM glucose, 5 mM KCl, 2 mM CaCl2, 1 mM MgCl2, pH 7.4) and incubated in the same buffer for 10 minutes at room temperature to lower intracellular pH with 0-30 μM test compound. […] Changes in intracellular pH were monitored using a FLIPR Tetra® (Molecular Devices, Sunnyvale, Calif.) by excitation at λex 439 to 505 nm, and measuring BCECF fluorescence at λem 538 nm. The initial rate of the fluorescence ratio change was used as a measure of NHE-mediated Na^+/H^+ activity, and reported as the change in fluorescence ratio per minute.

rat NHE-3 = molecular target: T2, rat NHE-3 (Rattus norvegicus, UniProt P26433); experiment: Cell-based assay of NHE-3 activity (Pharmacological Test Example 1); settings: OK cells expressing rat NHE-3; 0-30 uM test compound, 5 uM EIPA; read-out: rat NHE-3 Average pIC50 (converted)
T2 construct: expressed in transfected cells; host or cells: Opossum kidney (OK) cells (ATCC), electroporated
In short: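 OK cells electroporated with rat NHE-3, loaded with 5 uM BCECF-AM in NH4Cl-HEPES (pH 7.4) for 30 min at room temperature, then acid-loaded 10 min in Na+-free choline buffer. Na+-dependent H+ antiport read as initial rate of pH-dye change; pIC50 from 3-6 replicate averages.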

[1] = Determination of compound remaining in feces; assay type: in vivo, rat; settings: 0.1 mg/kg oral gavage; for recovery in 72-hour fecal samples: three rats; for dose excreted: Sprague-Dawley, rat, faeces, po, 0.1 mg/kg, read-out: % Recovery ± SD from 72-hour fecal samples
Description: Sprague-Dawley rats were orally gavaged with test article. A low dose of compound (0.1 mg/kg) was selected so that feces would remain solid and practical to collect. For both Examples 202 and 203, three rats were dosed, and following dosage of compounds, the rats were placed in metabolic cages for 72 hours. After 72 hours, fecal samples were recovered and dried for 48 hours. Dried fecal samples were ground to a powdered from, and for each rat, 10 replicates of 50 mg samples were extracted with acetonitrile. Insoluble materials were removed by centrifugation and supernatants analyzed by LC/MS/MS and compared against a standard curve to determine compound concentration. The amount of compound actually dosed was determined by LC/MS/MS analysis of the dosing solutions. The total amount of compound present in the 72-hour fecal samples was compared to the total amount of compound dosed, and reported as percentage of total dose recovered.

T2 sequence (P26433 29-831): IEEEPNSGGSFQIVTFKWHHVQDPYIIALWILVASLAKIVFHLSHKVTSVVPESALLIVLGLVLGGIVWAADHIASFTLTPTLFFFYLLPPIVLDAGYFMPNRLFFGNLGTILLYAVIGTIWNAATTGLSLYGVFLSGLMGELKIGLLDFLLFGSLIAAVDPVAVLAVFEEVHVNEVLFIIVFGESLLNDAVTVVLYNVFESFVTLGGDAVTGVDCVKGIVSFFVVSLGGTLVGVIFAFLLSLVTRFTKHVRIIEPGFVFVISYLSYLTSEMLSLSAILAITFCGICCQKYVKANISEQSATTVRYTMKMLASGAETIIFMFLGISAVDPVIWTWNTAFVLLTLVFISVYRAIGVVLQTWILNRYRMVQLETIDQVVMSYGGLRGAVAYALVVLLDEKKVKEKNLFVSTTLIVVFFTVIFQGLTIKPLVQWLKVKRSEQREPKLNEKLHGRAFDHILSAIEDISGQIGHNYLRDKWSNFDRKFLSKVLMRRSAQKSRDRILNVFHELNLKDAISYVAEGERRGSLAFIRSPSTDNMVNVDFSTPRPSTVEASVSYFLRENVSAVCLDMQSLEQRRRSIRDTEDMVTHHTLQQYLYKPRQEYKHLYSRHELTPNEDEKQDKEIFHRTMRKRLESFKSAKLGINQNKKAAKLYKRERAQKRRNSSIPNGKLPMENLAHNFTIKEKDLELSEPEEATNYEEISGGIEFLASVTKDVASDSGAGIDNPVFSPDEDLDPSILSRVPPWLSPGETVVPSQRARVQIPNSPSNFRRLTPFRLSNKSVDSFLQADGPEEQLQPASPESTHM

| Structure (SMILES) | % inhibition (human NHE3) | IC50 (human NHE3) [nM] | IC50 (rat NHE-3) [nM] | recovery in 72-hour fecal samples [1] | dose excreted ([1]; Rat 1) [%] | dose excreted ([1]; Rat 2) [%] | dose excreted ([1]; Rat 3) [%] |
| --- | --- | --- | --- | --- | --- | --- | --- |
| CN1Cc2c(Cl)cc(Cl)cc2[C@H](c2cccc(S(=O)(=O)NCCOCCOCCNC(=O)NCCCCNC(=O)NCCOCCOCCNS(=O)(=O)c3cccc([C@@H]4CN(C)Cc5c(Cl)cc(Cl)cc54)c3)c2)C1 (single isomer, unassigned) [Example 202, (S or R)—N,N′-(10,17-dioxo-3,6,21,24-tetraoxa-9,11,16,18-tetraazahexacosane-1,26-diyl)bis(3-((S)-6,8-dichloro-2-methyl-1,2,3,4-tetrahydroisoquinolin-4-yl)benzenesulfonamide) bis-hydrochloride salt] | C (>70%) | < 100 | < 100 | near quantitative recovery | 93.8 ± 11.8 | 90.5 ± 5.5 | 92.4 ± 10.6 |
| CN1Cc2c(Cl)cc(Cl)cc2[C@H](c2cccc(S(=O)(=O)NCCOCCOCCNC(=O)Nc3ccc(NC(=O)NCCOCCOCCNS(=O)(=O)c4cccc([C@@H]5CN(C)Cc6c(Cl)cc(Cl)cc65)c4)cc3)c2)C1 (single isomer, unassigned) [Example 203, (S or R)—N,N′-(2,2′-(2,2′-(2,2′-(1,4-phenylenebis(azanediyl))bis(oxomethylene)bis(azanediyl)bis(ethane-2,1-diyl))bis(oxy)bis(ethane-2,1-diyl))bis(oxy)bis(ethane-2,1-diyl))bis(3-((S or R)-6,8-dichloro-2-methyl-1,2,3,4-tetrahydroisoquinolin-4-yl)benzenesulfonamide) bis-hydrochloride salt] | C (>70%) | < 100 | < 100 | near quantitative recovery | 100 ± 6.7 | 75.8 ± 8.2 | 104 ± 7.1 |
